Patent US6737383B1, “Herbicidal oxadiazolidines” (priority 1999, dated 2004)

Experiments:
wheat = experiment: Test B pre/postemergence wheat; format: in vivo, Triticum aestivum
Summary of the method: (§1)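 Response is a visual 0-to-10 score relative to untreated plants, where 0 means no effect and 10 means complete control, taken twelve to sixteen days after application. Treatments went onto soil at planting and onto foliage of 1- to 4-leaf plants, using a surfactant-containing non-phytotoxic solvent.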

smallflower flatsedge = experiment: Test B flood test smallflower flatsedge; format: in vivo, Cyperus difformis
Summary of the method: (§2)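 Each value is a visual injury score relative to controls, with 10 meaning complete control and 0 no effect. Evaluation took place twelve to sixteen days after the 2-leaf-stage plants were treated and kept in the greenhouse.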

pigweed = experiment: Test B pre/postemergence pigweed; format: in vivo, Amaranthus retroflexus
Summary of the method: as §1

rice = experiment: Test B flood test rice; format: in vivo, Oryza sativa
Summary of the method: as §2

purple nutsedge = experiment: Test B pre/postemergence purple nutsedge; format: in vivo, Cyperus rotundus
Summary of the method: as §1

sugar beet = experiment: Test B pre/postemergence sugar beet; format: in vivo, Beta vulgaris
Summary of the method: as §1

wild oat = experiment: Test B pre/postemergence wild oat; format: in vivo, Avena fatua
Summary of the method: as §1

bamyardgrass = experiment: Test B flood test barnyardgrass; format: in vivo, Echinochloa crus-galli
Summary of the method: as §2

corn = experiment: Test B pre/postemergence corn; format: in vivo, Zea mays
Summary of the method: as §1

surinam grass = experiment: Test B pre/postemergence surinam grass; format: in vivo, Brachiaria decumbens
Summary of the method: as §1

morningglory = experiment: Test B pre/postemergence morningglory; format: in vivo, Ipomoea hederacea
Summary of the method: as §1

bedstraw = experiment: Test B pre/postemergence bedstraw; format: in vivo, Galium aparine
Summary of the method: as §1

rape = experiment: Test B pre/postemergence rape; format: in vivo, Brassica napus
Summary of the method: as §1

blackgrass = experiment: Test B pre/postemergence blackgrass; format: in vivo, Alopecurus myosuroides
Summary of the method: as §1

crabgrass = experiment: Test B pre/postemergence crabgrass; format: in vivo, Digitaria sanguinalis
Summary of the method: as §1

giant foxtail = experiment: Test B pre/postemergence giant foxtail; format: in vivo, Setaria faberii
Summary of the method: as §1

[1] = Preemergence, Rate 62 g/ha, scale of 0 to 10 where 0 is no effect and 10 is complete control
[2] = Preemergence, Rate 250 g/ha, scale of 0 to 10 where 0 is no effect and 10 is complete control
[3] = Preemergence, Rate 500 g/ha, scale of 0 to 10 where 0 is no effect and 10 is complete control
[4] = Rate 62 g/ha, Postemergence, scale 0 to 10 (0 no effect, 10 complete control)
[5] = Rate 125 g/ha, Postemergence, scale of 0 to 10 where 0 is no effect and 10 is complete control
[6] = Rate 250 g/ha, Postemergence, scale of 0 to 10 where 0 is no effect and 10 is complete control
[7] = Rate 62 g/ha, headed Pre-emergence (flood test species), scale 0 to 10 (0 no effect, 10 complete control)
[8] = Rate 125 g/ha, Pre-emergence, flood test species, scale 0 to 10 where 0 is no effect and 10 is complete control
[9] = Rate 250 g/ha, Pre-emergence, flood-test species, scale 0 to 10, 0 is no effect, 10 is complete control
[10] = Rate 500 g/ha, Pre-emergence, flood test species, scale 0 to 10 (0 no effect, 10 complete control)
[11] = Rate 500 g/ha, Postemergence, scale 0 to 10, 0 no effect, 10 complete control

Cc1ccccc1-n1c(=O)on(C(=O)N(c2ccc(OC(F)(F)F)cc2)C(C)C)c1=O [Compound 300]
9: Giant foxtail plant response rating (giant foxtail; [2])
5: Giant foxtail plant response rating (0 to 10 scale) (giant foxtail; Preemergence, Rate 125 g/ha)
8: Bedstraw plant response rating (bedstraw; [3])
3: Wild oats plant response rating (wild oat; [3])
7: Crabgrass plant response rating (crabgrass; [3])
4: Crabgrass plant response rating (crabgrass; [2])
0: Wheat plant response rating (wheat; [1]) | Wheat plant response rating (0 to 10 scale) (wheat; Preemergence, Rate 125 g/ha) | Wheat plant response rating (wheat; [2]) | Wheat plant response rating (wheat; [4]) | Wheat plant response rating (wheat; [5]) | Plant response rating, Wheat (wheat; [6]) | S. Flatsedge plant response rating (smallflower flatsedge; [7]) | S. Flatsedge plant response rating (smallflower flatsedge; [8]) | S. Flatsedge plant response rating (smallflower flatsedge; [9]) | S. Flatsedge plant response rating (smallflower flatsedge; [10]) | Redroot pigweed plant response rating (pigweed; [1]) | Redroot pigweed plant response rating (0 to 10 scale) (pigweed; Preemergence, Rate 125 g/ha) | Redroot pigweed plant response rating (pigweed; [2]) | Redroot pigweed plant response rating (pigweed; [3]) | Redroot pigweed plant response rating (pigweed; [4]) | Redroot pigweed plant response rating (pigweed; [5]) | Plant response rating, Redroot pigweed (pigweed; [6]) | Rice plant response rating (rice; [7]) | Rice plant response rating (rice; [8]) | Rice plant response rating (rice; [9]) | Rice plant response rating (rice; [10]) | Nutsedge plant response rating (purple nutsedge; [1]) | Nutsedge plant response rating (0 to 10 scale) (purple nutsedge; Preemergence, Rate 125 g/ha) | Nutsedge plant response rating (purple nutsedge; [2]) | Nutsedge plant response rating (purple nutsedge; [3]) | Nutsedge plant response rating (purple nutsedge; [4]) | Nutsedge plant response rating (purple nutsedge; [5]) | Plant response rating, Nutsedge (purple nutsedge; [6]) | Sugarbeets plant response rating (sugar beet; [1]) | Sugarbeets plant response rating (0 to 10 scale) (sugar beet; Preemergence, Rate 125 g/ha) | Sugarbeets plant response rating (sugar beet; [2]) | Sugarbeets plant response rating (sugar beet; [3]) | Sugarbeets plant response rating (sugar beet; [4]) | Sugarbeets plant response rating (sugar beet; [5]) | Plant response rating, Sugarbeets (sugar beet; [6]) | Wild oats plant response rating (wild oat; [1]) | Wild oats plant response rating (0 to 10 scale) (wild oat; Preemergence, Rate 125 g/ha) | Wild oats plant response rating (wild oat; [2]) | Wild oats plant response rating (wild oat; [4]) | Wild oats plant response rating (wild oat; [5]) | Plant response rating, Wild oats (wild oat; [6]) | Barnyardgrass plant response rating (bamyardgrass; [7]) | Barnyardgrass plant response rating (bamyardgrass; [8]) | Barnyardgrass plant response rating (bamyardgrass; [9]) | Barnyardgrass plant response rating (bamyardgrass; [10]) | Corn plant response rating (corn; [1]) | Corn plant response rating (0 to 10 scale) (corn; Preemergence, Rate 125 g/ha) | Corn plant response rating (corn; [2]) | Corn plant response rating (corn; [3]) | Corn plant response rating (corn; [4]) | Corn plant response rating (corn; [5]) | Plant response rating, Corn (corn; [6]) | Corn plant response rating (corn; [11]) | B. signalgrass plant response rating (surinam grass; [1]) | B. signalgrass plant response rating (0 to 10 scale, 0 is no effect, 10 is complete control) (surinam grass; Preemergence, Rate 125 g/ha) | B. signalgrass plant response rating (surinam grass; [2]) | B. signalgrass plant response rating (surinam grass; [4]) | B. signalgrass plant response rating (surinam grass; [5]) | Plant response rating, B. signalgrass (surinam grass; [6]) | B. signalgrass plant response rating (surinam grass; [11]) | Morningglory plant response rating (morningglory; [1]) | Morningglory plant response rating (0 to 10 scale) (morningglory; Preemergence, Rate 125 g/ha) | Morningglory plant response rating (morningglory; [2]) | Morningglory plant response rating (morningglory; [3]) | Morningglory plant response rating (morningglory; [4]) | Morningglory plant response rating (morningglory; [5]) | Plant response rating, Morningglory (morningglory; [6]) | Bedstraw plant response rating (bedstraw; [2]) | Bedstraw plant response rating (bedstraw; [4]) | Bedstraw plant response rating (bedstraw; [5]) | Plant response rating, Bedstraw (bedstraw; [6]) | Bedstraw plant response rating (bedstraw; [11]) | Rape plant response rating (rape; [1]) | Rape plant response rating (0 to 10 scale) (rape; Preemergence, Rate 125 g/ha) | Rape plant response rating (rape; [2]) | Rape plant response rating (rape; [3]) | Rape plant response rating (rape; [4]) | Rape plant response rating (rape; [5]) | Plant response rating, Rape (rape; [6]) | Blackgrass plant response rating (blackgrass; [1]) | Blackgrass plant response rating (0 to 10 scale) (blackgrass; Preemergence, Rate 125 g/ha) | Blackgrass plant response rating (blackgrass; [2]) | Blackgrass plant response rating (blackgrass; [3]) | Blackgrass plant response rating (blackgrass; [4]) | Blackgrass plant response rating (blackgrass; [5]) | Plant response rating, Blackgrass (blackgrass; [6]) | Blackgrass plant response rating (blackgrass; [11]) | Crabgrass plant response rating (crabgrass; [1]) | Crabgrass plant response rating (crabgrass; [4]) | Crabgrass plant response rating (crabgrass; [5]) | Plant response rating, Crabgrass (crabgrass; [6]) | Giant foxtail plant response rating (giant foxtail; [1]) | Giant foxtail plant response rating (giant foxtail; [4]) | Giant foxtail plant response rating (giant foxtail; [5]) | Plant response rating, Giant foxtail (giant foxtail; [6])
10: Giant foxtail plant response rating (giant foxtail; [3])
2: Wheat plant response rating (wheat; [3]) | B. signalgrass plant response rating (surinam grass; [3]) | Crabgrass plant response rating (0 to 10 scale) (crabgrass; Preemergence, Rate 125 g/ha)
